Assay results from publication PMC6630517 (Molecules, 2019).
Where two headings read alike, the source gives them in different places.

Key:
blood stage = conditions: cited from earlier work
[1] = tested on: chloroquine-sensitive (CQS) NF54 strain of Plasmodium falciparum; test: In vitro antiplasmodial assay (parasite lactate dehydrogenase), NF54 strain; assay type: cell-based; conditions: for activity in the sensitive strain (in words): NF54 strain
Procedure: (§1) Continuous in vitro cultures of asexual erythrocyte stages of P. falciparum were maintained using a modified method by Trager and Jensen. Quantitative assessment of the antiplasmodial activity in vitro was determined via the parasite lactate dehydrogenase assay using a modified method described by Makler. […] Samples were tested as a suspension if not completely dissolved. Stock solutions were stored at −20 °C. Further dilutions were prepared on the day of the experiment. […] The vitamin B12 complexes were tested at starting concentrations up to 50 μg/ mL, which was then serially diluted 2-fold in complete medium to give 10 concentrations. The ligands were tested at a starting concentration of 10 μg/mL, which was serially diluted 2-fold in complete medium to give 10 concentrations. […] The IC50 values were obtained using a non-linear dose-response curve fitting analysis via Graph Pad Prism v.5.0 software (GraphPad Software Inc., San Diego, CA, USA).

[2] = tested on: chloroquine-resistant (CQR) K1 strain of Plasmodium falciparum; test: In vitro antiplasmodial assay (parasite lactate dehydrogenase), K1 strain; assay type: cell-based; conditions: for Resistance Index (RI): RI = IC50 (CQR)/IC50 (CQS); for activity against the CQR K1 strain relative to CQS (in words): resistance indices very close to unity
Procedure: as §1

[3] = tested on: Tg(fabp10:EGFP) zebrafish embryos; test: Zebrafish bio-distribution, transgenic Tg(fabp10:EGFP) embryos; assay type: in vivo, Danio rerio
Procedure: (§2) Because liver toxicity presents one of the most common drawbacks of the drugs approved for the human use, the drugs synthesized in this study were examined for the possible hepatotoxicity in vivo. The transgenic Tg(fabp:EGFP) zebrafish embryos exposed at 72 hpf (a stage when the liver is becoming vascularized and performing metabolic transformation of the absorbed compounds) to the synthesized drugs were evaluated for the liver colour (a possible necrosis sign), size, fluorescence and the liver area index ([…]). These are all parameters commonly used for hepatotoxicity evaluation and to follow the effect of applied therapies on the liver function.
To verify a preferential accumulation of B12-JR1-CBC in the liver, the compound was applied intravenously (parenteral use) to zebrafish embryos.

[4] = tested on: zebrafish (Danio rerio) embryos; test: Zebrafish embryo toxicity (lethal, developmental, cardiotoxicity); conditions: 6 to 120 hpf; for toxicity in zebrafish embryos (survival/teratogenicity, in words): doses up to 150 µM
Procedure: The toxicity evaluation of B12-JR1, B12-JR1-CBC and vitamin B12 in the zebrafish model was carried out according to general rules of the OECD Guidelines for the Testing of Chemicals. […] Embryos of wild type zebrafish (Danio rerio, AB strain) were raised in a temperature- and light-controlled zebrafish facility with 28 °C and standard 14:10-h light-dark photoperiod, and regularly fed with commercially dry flake food (TetraMin™ flakes; Tetra Melle, Germany) twice a day and Artemia nauplii once daily. Zebrafish embryos were produced by the pair-wise mating, collected and distributed into 24-well plates containing 10 embryos per well and 1 mL embryos water (0.2 g L^−1 of Instant Ocean® Salt in distilled water), and raised at 28 °C. […] Experiments were performed three times using 30 embryos per concentration. Apical endpoints for the toxicity evaluation (Table S1) were recorded at 24, 48, 72, 96 and 120 hpf using an inverted microscope (CKX41; Olympus, Tokyo, Japan). […] Experiments were performed three times using 5 embryos per concentration. The hepatotoxicity was determined according to the change of liver area index compared to the control group, calculated as the ration between liver area and embryonic lateral area x 100%, as reported by Zhang et al.. In addition, the liver colour and retention of yolk were followed as the phenotypic signs of hepatotoxicity.

[5] = tested on: liver of Tg(fabp10:EGFP) zebrafish embryos; test: Zebrafish hepatotoxicity, transgenic Tg(fabp10:EGFP) embryos; assay type: in vivo, Danio rerio; conditions: 150 µM
Procedure: as §2
Dead embryos were counted and discarded every 24 h.

[6] = tested on: human lung fibroblasts (MRC5) cell line; test: In vitro cytotoxicity, MTT assay, MRC5; assay type: cell-based; conditions: 48 h, 5 to 200 μM, read-out: IC50 against MRC5
Procedure: (§3) B12-JR1 was screened for in vitro cytotoxicity against the Chinese Hamster Ovarian (CHO) cell-line using the 3-(4,5-dimethylthiazol-2-yl)-2,5-diphenyltetrazolium bromide (MTT)-assay. The test sample was prepared to a 20 mg mL^−1 stock solution in 100% DMSO and tested in triplicate. Stock solutions were stored at −20 °C. Further dilutions were prepared in complete medium on the day of the experiment. Samples were tested as a suspension if not completely dissolved. Emetine was used as the reference drug in all experiments. The initial concentration of emetine was 100 µg mL^−1, which was diluted in complete medium with 10-fold dilutions to give 6 concentrations, the lowest being 0.001 µg mL^−1. The same dilution technique was applied to all test samples. The highest concentration of solvent to which the cells were exposed to have no measurable effect on the cell viability. […] Furthermore, the cytotoxicity in terms of the antiproliferative effect of B12-JR1, B12-JR2 and B12-JR3 were similarly evaluated by the MTT assay. The assay was carried out using human lung fibroblasts (MRC5) cell line after 48 h of cell incubation in the medium, containing compounds at concentrations ranging from 5 to 200 μM. […] The results were expressed as mean values ± standard deviation (SD) and analysed using Student’s t-test at a threshold level of p = 0.05. […]

[7] = tested on: Chinese Hamster Ovarian (CHO) cell-line; assay type: cell-based
Procedure: as §3

[8] = Plasmodium falciparum, CQS NF54 strain, asexual erythrocyte stages, triplicate, na = not active at the tested concentration, read-out: NF54 IC50 ± SD
[9] = Plasmodium falciparum, CQR K1 strain, asexual erythrocyte stages, triplicate, read-out: K1 IC50 ± SD
[10] = CQS NF54 strain, asexual erythrocyte stages, triplicate, na = not active at the tested concentration, read-out: NF54 IC50 ± SD
[11] = CQR K1 strain, asexual erythrocyte stages, triplicate, read-out: K1 IC50 ± SD

C/C1=C2/[N-][C@H]([C@H](CC(N)=O)[C@@]2(C)CCC(=O)NC[C@@H](C)OP(=O)([O-])O[C@H]2[C@@H](O)[C@@H](n3cnc4cc(C)c(C)cc43)O[C@@H]2CO)[C@]2(C)N=C(/C(C)=C3N=C(/C=C4N=C1[C@@H](CCC(N)=O)C\4(C)C)[C@@H](CCC(N)=O)[C@]\3(C)CC(N)=O)[C@@H](CCC(N)=O)[C@]2(C)CC(N)=O.[CH2-][C@H]1O[C@@H](n2cnc3c(N)ncnc32)[C@H](O)[C@@H]1O.[Co] [Ado-Cbl, adenosylcobalamin]
rank of antimalarial activity among naturally occurring Cbls (in words) (blood stage): most active

CCN(CC)CCCC(C)Nc1ccnc2cc(Cl)ccc12 (centres unmarked) [CQ, chloroquine, reference compound]
IC50 ([1]; Plasmodium falciparum, NF54, Erythrocyte, read-out: NF54 IC50 ± SD): 0.013 ± 0.001 µM | IC50 ([2]; Plasmodium falciparum, K1, Erythrocyte, read-out: K1 IC50 ± SD): 0.4 ± 0.04 µM

C#Cc1ccc(-c2cn(CCNc3ccnc4cc(Cl)ccc34)nn2)cc1 [JR1, 7-chloro-N-(2-(4-(4-ethynylphenyl)-1H-1,2,3-triazol-1-yl)ethyl)quinolin-4-amine]
activity in the sensitive strain (in words) [1]: good activity | IC50 [1, 8]: 0.14 ± 0.01 µM | IC50 [2, 9]: 0.18 ± 0.02 µM | Resistance Index (RI) [2]: 1.3

C#Cc1ccc(-c2cn(CCNc3ccnc4cc(Cl)ccc34)nn2)cc1F [JR2, 7-chloro-N-(2-(4-(4-ethynyl-3-fluorophenyl)-1H-1,2,3-triazol-1-yl)ethyl)quinolin-4-amine]
activity in the sensitive strain (in words) [1]: good activity | IC50 [1, 8]: 0.15 ± 0.01 µM | IC50 [2, 9]: 0.16 ± 0.01 µM | Resistance Index (RI) [2]: 1.1

C#Cc1ccc(-c2cn(CCNc3ccnc4cc(Cl)ccc34)nn2)c(F)c1 [JR3, 7-chloro-N-(2-(4-(4-ethynyl-2-fluorophenyl)-1H-1,2,3-triazol-1-yl)ethyl)quinolin-4-amine]
activity in the sensitive strain (in words) [1]: good activity | IC50 [1, 8]: 0.19 ± 0.02 µM | IC50 [2, 9]: 0.21 ± 0.02 µM | Resistance Index (RI) [2]: 1.1

C#Cc1ccc(-c2cn(CC(=O)N3CCn4c(nc(-c5ccc(F)cc5)c4Nc4ccc(F)cc4)C3(C)C)nn2)cc1 [SN1, 2-(4-(4-ethynylphenyl)-1H-1,2,3-triazol-1-yl)-1-(2-(4-fluorophenyl)-3-((4-fluorophenyl)amino)-8,8-dimethyl-5,6-dihydroimidazo[1,2-a]pyrazin-7(8H)-yl)ethan-1-one]
activity in the sensitive strain (in words) [1]: inactive

Cobalamin-2-(4-(4-ethynylphenyl)-1H-1,2,3-triazol-1-yl)-1-(2-(4-fluorophenyl)-3-((4-fluorophenyl)amino)-8,8-dimethyl-5,6-dihydroimidazo[1,2-a]pyrazin-7(8H)-yl)ethan-1-one [Compound B12-SN1]
activity in the sensitive strain (in words) [1]: inactive

cobalamin-7-chloro-N-(2-(4-(4-ethynyl-2-fluorophenyl)-1H-1,2,3-triazol-1-yl)ethyl)quinolin-4-amine [Compound B12-JR3]
IC50 [1, 10]: 9.68 ± 0.73 µM | IC50 [2, 11]: > 15 µM | Resistance Index (RI) [2]: >1.6

cobalamin-7-chloro-N-(2-(4-(4-ethynyl-3-fluorophenyl)-1H-1,2,3-triazol-1-yl)ethyl)quinolin-4-amine [Compound B12-JR2]
IC50 [1, 10]: 4.73 ± 0.32 µM | IC50 [2, 11]: 6.02 ± 0.71 µM | Resistance Index (RI) [2]: 1.3 | activity against the CQR K1 strain relative to CQS (in words) [2]: equally active

cobalamin-7-chloro-N-(2-(4-(4-ethynylphenyl)-1H-1,2,3-triazol-1-yl)ethyl)quinolin-4-amine [Compound B12-JR1]
IC50 [1, 10]: 6.27 ± 0.37 µM | IC50 ([1]; Table 2, in vitro data obtained in the cell-based assay, read-out: IC50 NF54): 6.3 µM | IC50 [2, 11]: 9.18 ± 0.85 µM | Resistance Index (RI) [2]: 1.5 | IC50 ([2]; Table 2, in vitro data obtained in the cell-based assay, read-out: IC50 K1): 9.2 µM | activity against the CQR K1 strain relative to CQS (in words) [2]: equally active | organ distribution when applied in the embryo water (in words) ([3]; 150 µM, 106–120 hpf): preferential accumulation of both compounds in the liver | effect on liver development (in words) ([3]; after the exposure period, 150 µM of B12-JR1 and 20 µM B12-JR1-CBC): did not affect the liver development | organ distribution after microinjection into the blood circulation (in words) ([3]; parenteral, microinjected at 106 hpf, analysed at 120 hpf): solely detected in the liver | toxicity in zebrafish embryos (survival/teratogenicity, in words) [4]: neither toxic | LC50 ([4]; zebrafish model): > 150 µM | liver area index (in words) ([5]; exposure 72–120 hpf): did not affect the liver area index | liver size and fluorescence (in words) ([5]; exposure 72–120 hpf): no changes in the liver size and fluorescence | hepatotoxicity (in words) ([5]; dose 16–24 higher than the one active against Plasmodium strains): not hepatotoxic | IC50 [6]: 70 µM | toxicity against CHO cells (in words) [7]: not to be toxic

cyanocobalamin [vitamin B12, reference compound]
toxicity in zebrafish embryos (survival/teratogenicity, in words) [4]: neither toxic
